Source: patent US11014933B2 (priority 2018, dated 2021)
Structures can show the parent of a compound that is named as a salt. Where two headings read alike, the source gives them in different places.

Tests used:
[1] = target: T1, MOR (Mus musculus, UniProt P42866); experiment: Competition radioligand binding, MOR ([3H]naloxone); design: expressed in transfected cells; host or cells: CHO; conditions: CHO cell membranes
[2] = target: T2, KOR (Homo sapiens, UniProt P41145); experiment: biochemical; format: binding
T2 construct: expressed in transfected cells; host or cells: CHO

[3] = target: T1, MOR; conditions: for EC50: read-out: MOR 35S-GTP[γS] Binding EC50; for MOR 35S-GTP[γS] Binding % Emax of DAMGO: relative to 3 μM DAMGO
[4] = target: T3, DOR (Homo sapiens, UniProt P41143); experiment: biochemical; format: binding; design: expressed in transfected cells; host or cells: CHO
[5] = test system: C57BL/6J mice; experiment: Warm-water tail-withdrawal test with cumulative morphine dosing; format: in vivo, mouse
[6] = test system: Caco-2 monolayers; experiment: Caco-2 bidirectional transport assay
[7] = test system: P-gp; experiment: Caco-2 bidirectional transport assay; conditions: human
[8] = target: T1, MOR; experiment: Desensitization study: DAMGO-induced [35S]GTPγS binding after ligand pretreatment of mMOR-CHO cells; format: cell-based; design: expressed in transfected cells; host or cells: CHO
[9] = target: T4, rat MOR (Rattus norvegicus, UniProt P33535); format: cell-based
T4 construct: expressed in transfected cells; host or cells: Neuro2A murine neuroblastoma cells (clones H38 and H16)

[10] = test system: Swiss Webster mice; experiment: Tail immersion assay (agonism, and antagonism of morphine); format: in vivo, mouse; conditions: for AD50 (antagonism of morphine antinociception): 95% confidence level in brackets; for % MPE of morphine (10 mg/kg) in the presence of test compound (antagonism): test compound 10 mg/kg s.c., 5 min before morphine
[11] = target: T1, MOR; experiment: biochemical
[12] = target: mouse μ opioid receptor (Mus musculus, UniProt P42866); experiment: Calcium mobilization assay in mMOR-CHO cells; format: cell-based
[13] = test system: morphine-pelleted mice; experiment: Withdrawal study in morphine-pelleted mice
[14] = target: T1, MOR; conditions: 24 h pretreatment (DAMGO, morphine 5 μM; nalbuphine, naltrexone 1 μM); previously published; cited from earlier work
[15] = target: T2, KOR; conditions: values from reference 44a/57a; cited from earlier work
[16] = target: T1, MOR; conditions: values from reference 44a/57a, cited from earlier work
[17] = target: T3, DOR; conditions: values from reference 44a/57a; cited from earlier work
[18] = target: T1, MOR; design: expressed in transfected cells; host or cells: CHO; conditions: read-out: Ki MOR; [3H]naloxone; values from reference 44a/57a; cited from earlier work
[19] = test system: Caco-2 monolayers; conditions: related study, cited from earlier work
[20] = read-out: MOR 35S-GTP[γS] Binding % Emax of DAMGO, relative to 3 μM DAMGO

T3 sequence (P41143 whole entry): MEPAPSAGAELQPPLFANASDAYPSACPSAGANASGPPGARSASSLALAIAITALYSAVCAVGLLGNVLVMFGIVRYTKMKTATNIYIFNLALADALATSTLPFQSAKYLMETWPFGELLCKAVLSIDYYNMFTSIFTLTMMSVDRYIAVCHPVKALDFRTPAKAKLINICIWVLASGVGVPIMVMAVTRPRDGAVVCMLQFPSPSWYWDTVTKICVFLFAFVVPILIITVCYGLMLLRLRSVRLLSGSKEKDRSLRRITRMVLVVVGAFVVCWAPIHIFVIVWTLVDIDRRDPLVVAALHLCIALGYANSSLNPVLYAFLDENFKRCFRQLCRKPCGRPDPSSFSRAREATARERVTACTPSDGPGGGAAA
T1 sequence (P42866 whole entry): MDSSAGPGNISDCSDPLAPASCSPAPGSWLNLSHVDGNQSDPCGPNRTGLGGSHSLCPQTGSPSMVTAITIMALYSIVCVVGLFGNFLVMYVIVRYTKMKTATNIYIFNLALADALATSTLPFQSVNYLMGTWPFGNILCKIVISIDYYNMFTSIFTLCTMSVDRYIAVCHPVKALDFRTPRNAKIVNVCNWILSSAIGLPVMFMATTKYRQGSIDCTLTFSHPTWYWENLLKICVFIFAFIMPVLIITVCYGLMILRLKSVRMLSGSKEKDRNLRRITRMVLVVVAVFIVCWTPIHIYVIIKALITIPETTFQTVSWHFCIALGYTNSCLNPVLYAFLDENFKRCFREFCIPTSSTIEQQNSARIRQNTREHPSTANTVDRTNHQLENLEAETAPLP
T2 sequence (P41145 whole entry): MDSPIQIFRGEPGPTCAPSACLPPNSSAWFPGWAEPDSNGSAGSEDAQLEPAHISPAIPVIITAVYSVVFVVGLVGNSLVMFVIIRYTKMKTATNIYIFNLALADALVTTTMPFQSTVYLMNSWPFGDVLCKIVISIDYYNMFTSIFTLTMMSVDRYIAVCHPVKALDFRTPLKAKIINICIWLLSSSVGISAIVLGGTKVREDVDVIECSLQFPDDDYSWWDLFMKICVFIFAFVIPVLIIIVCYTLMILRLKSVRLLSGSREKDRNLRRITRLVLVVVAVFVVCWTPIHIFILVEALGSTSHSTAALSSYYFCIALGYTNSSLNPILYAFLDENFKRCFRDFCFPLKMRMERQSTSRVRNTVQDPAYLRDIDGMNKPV
Chain of mouse μ opioid receptor (P42866 whole entry): as the sequence (P42866 whole entry) above
T4 sequence (P33535 whole entry): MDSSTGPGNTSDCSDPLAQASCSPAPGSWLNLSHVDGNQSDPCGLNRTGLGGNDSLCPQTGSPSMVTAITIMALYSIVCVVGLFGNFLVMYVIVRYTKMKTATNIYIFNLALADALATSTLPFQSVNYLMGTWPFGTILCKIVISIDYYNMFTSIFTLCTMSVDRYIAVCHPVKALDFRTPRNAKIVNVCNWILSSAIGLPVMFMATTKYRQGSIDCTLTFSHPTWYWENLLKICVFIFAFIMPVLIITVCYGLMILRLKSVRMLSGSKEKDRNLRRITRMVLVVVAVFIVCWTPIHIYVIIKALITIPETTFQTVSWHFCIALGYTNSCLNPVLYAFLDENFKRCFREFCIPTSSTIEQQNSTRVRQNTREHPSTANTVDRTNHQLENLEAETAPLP

17-Cyclopropylmetyl-3,14β-dihydroxy-4,5α-epoxy-6β-[(3′-carboxyl-4′-pyridyl) acetamido]morphinan [Compound 5]
Ki [1]: 0.76 ± 0.08 nM | Selectivity κ/μ [2]: 3.2 | Ki ([2]; read-out: Ki KOR): 2.43 ± 0.19 nM | EC50 ([3]; MOR-CHO membranes): 1.83 ± 0.18 nM | MOR 35S-GTP[γS] Binding % Emax of DAMGO [3]: 29.27 ± 1.42% | Selectivity δ/μ [4]: 73.2 | Ki ([4]; read-out: Ki DOR): 55.6 ± 6.02 nM

O=C(N[C@@H]1CCC2(O)C3Cc4ccc(O)c5c4[C@@]2(CCN3CC2CC2)[C@H]1O5)c1ccnc(Cl)c1 (some centres unmarked) (as salt: hydrochloride)
melting point: > 250 °C

O=C(N[C@@H]1CCC2(O)C3Cc4ccc(O)c5c4[C@@]2(CCN3CC2CC2)[C@H]1O5)c1ccnc(Br)c1 (some centres unmarked) (as salt: hydrochloride)
melting point: > 250 °C

Cc1cc(C(=O)N[C@@H]2CCC3(O)C4Cc5ccc(O)c6c5[C@@]3(CCN4CC3CC3)[C@H]2O6)ccn1 (some centres unmarked) (as salt: hydrochloride)
melting point: 248 °C (dec.)

COc1cc(C(=O)N[C@@H]2CCC3(O)C4Cc5ccc(O)c6c5[C@@]3(CCN4CC3CC3)[C@H]2O6)ccn1 (some centres unmarked) (as salt: hydrochloride)
melting point: 244 to 248 °C (dec.)

O=C(N[C@@H]1CC[C@@]2(O)[C@H]3Cc4ccc(O)c5c4[C@@]2(CCN3CC2CC2)[C@H]1O5)c1ccncc1F [Compound 1]
Antinociception (% MPE) of morphine in NFP group relative to vehicle-treated group, Day 1 ([5]; NFP 0.3 mg/kg s.c. pretreatment, 10 mg/kg cumulative morphine, p=0.0013): significantly less antinociception | Antinociception (% MPE) of morphine in NFP group relative to Vehicle Group, Day 7 ([5]; after five days of 10 mg/kg morphine + 0.3 mg/kg NFP, 32 mg/kg cumulative morphine, p=0.0138): significantly less antinociception | P-gp substrate ([6]; Caco-2, with or without elacridar): may be a P-gp substrate | Papp, B-A (efflux) compared with Papp, A-B (absorption) ([6]; NFP 20 μM, 37° C., 2 h): much higher | efflux ratio at 2 h, 20 μM ([7]; Caco-2, pH 7.4): 7 ± 0.5 | efflux ratio at 2 h, 20 μM ([7]; Caco-2, pH 7.4, with elacridar 1 μM): 1.3 ± 0.3 | Emax of DAMGO-stimulated [35S]GTPγS binding after pretreatment (net) ([8]; NFP 1 μM, 24 h pretreatment of mMOR-CHO cells): 156.20 ± 13.83 fmol/mg | Ki [1]: 0.36 ± 0.02 nM | Ki [2]: 4.8 ± 0.26 nM | Internalization of the MOR [9]: did not | AD50 (antagonism of morphine antinociception) [10]: 2.82 (1.34-5.94) mg/kg | % MPE of morphine (10 mg/kg) in the presence of test compound (antagonism) ([10]; listed as 1 (NFP)): antagonized morphine's antinociception effect significantly | % MPE of morphine (10 mg/kg) in the presence of test compound (antagonism) ([10]; listed as NFP): 6.2±2.4% | Emax ([11]; read-out: Emax, stimulation of [35S]GTPγS binding (normalized to DAMGO), mMOR-CHO membranes, ligand alone, concentration-effect curve): 34.9 ± 1.5% | Emax [11, 20]: 35 ± 3.07% | Emax ([11]; read-out: Maximal inhibition (minimum) as % of maximal stimulation produced by DAMGO, in the presence of 0.3 μM DAMGO, mMOR-CHO membranes): 37.7 ± 1.5% | IC50 [12]: 76.1 ± 2.5 nM | EC50, Ca2+ signal (agonist mode) ([12]; mMOR-CHO cells transfected with Gαqi5, up to 3 μM): did not induce any apparent Ca^2+ signal | Relative efficacy versus naltrexone ([3]; mMOR-CHO membranes): ~3 fold | EC50 ([3]; MOR-CHO membranes): 1.2 ± 0.19 nM | Ki [4]: 157 ± 7.81 nM | Wet dog shakes, jumps and paw tremors versus naloxone 1 mg/kg ([13]; 10 mg/kg s.c., 20 min): significantly fewer wet dog shakes, jumps, and paw tremors | Jumps versus naloxone 1 mg/kg ([13]; 50 mg/kg s.c.): significantly fewer jumps | Wet dog shakes and paw tremors versus naloxone 1 mg/kg ([13]; 50 and 100 mg/kg s.c.): not significantly different from those of naloxone

N#Cc1cnccc1C(=O)N[C@@H]1CC[C@@]2(O)[C@H]3Cc4ccc(O)c5c4[C@@]2(CCN3CC2CC2)[C@H]1O5 [Compound 2]
Ki [1]: 0.87 ± 0.09 nM | Ki [2]: 2.74 ± 0.47 nM | % MPE of morphine (10 mg/kg) in the presence of test compound (antagonism) ([10]; listed as 2 (NYP)): antagonized morphine's antinociception effect significantly | % MPE of morphine (10 mg/kg) in the presence of test compound (antagonism) ([10]; listed as NYP): 7.8±5.4% | Emax [11, 20]: 26.1 ± 0.74% | EC50 ([3]; MOR-CHO membranes): 1.28 ± 0.2 nM | Ki [4]: 46.3 ± 7.86 nM | Wet dog shakes and jumps versus naloxone 1 mg/kg ([13]; 1 mg/kg s.c.): significantly fewer wet dog shakes and jumps

O=C(Cc1ccncc1C(F)(F)F)N[C@@H]1CC[C@@]2(O)[C@H]3Cc4ccc(O)c5c4[C@@]2(CCN3CC2CC2)[C@H]1O5 [Compound 4, 17-Cyclopropylmetyl-3,14β-dihydroxy-4,5α-epoxy-6β-[(3′-trifluromethyl-4′-pyridyl)acetamido]morphinan]
Ki [1]: 0.43 ± 0.01 nM | Selectivity κ/μ [2]: 29.1 | Ki ([2]; read-out: Ki KOR): 12.5 ± 0.89 nM | EC50 ([3]; MOR-CHO membranes): 1.38 ± 0.2 nM | MOR 35S-GTP[γS] Binding % Emax of DAMGO [3]: 31.88 ± 3.39% | Selectivity δ/μ [4]: 143.7 | Ki ([4]; read-out: Ki DOR): 61.8 ± 5 nM

CC(C)Cc1cnccc1C(=O)N[C@@H]1CC[C@@]2(O)[C@H]3Cc4ccc(O)c5c4[C@@]2(CCN3CC2CC2)[C@H]1O5 [Compound 8]
Ki [1]: 7.2 ± 0.81 nM | Ki MOR [1]: nanomolar binding affinity | Ki [2]: 75.6 ± 3.87 nM | Emax [11, 20]: 27.3 ± 0.25% | MOR 35S-GTP[γS] Binding EC50 ([3]; MOR-CHO membranes): lowest potency | EC50 ([3]; MOR-CHO membranes): 19.7 ± 2.37 nM | Ki [4]: 149 ± 16 nM

O=C(N[C@@H]1CC[C@@]2(O)[C@H]3Cc4ccc(O)c5c4[C@@]2(CCN3CC2CC2)[C@H]1O5)c1ccncc1C1CCCCC1 [Compound 10]
Ki [1]: 0.78 ± 0.09 nM | Ki [2]: 3.32 ± 0.54 nM | Emax [11, 20]: 51.6 ± 3.73% | EC50 ([3]; MOR-CHO membranes): 2.46 ± 0.3 nM | Ki [4]: 11.2 ± 1.91 nM

O=C(N[C@@H]1CC[C@@]2(O)[C@H]3Cc4ccc(O)c5c4[C@@]2(CCN3CC2CC2)[C@H]1O5)c1ccncc1-c1ccccc1 [Compound 12]
Ki [1]: 0.63 ± 0.05 nM | Ki [2]: 3.42 ± 0.38 nM | Emax [11, 20]: 44.4 ± 3.12% | EC50 ([3]; MOR-CHO membranes): 1.46 ± 0.18 nM | Ki [4]: 44.8 ± 3.7 nM

C[C@@H](NC(=O)[C@@H](N)Cc1ccc(O)cc1)C(=O)NCC(=O)N(C)[C@@H](Cc1ccccc1)C(=O)NCCO [DAMGO, reference compound]
Emax of DAMGO-stimulated [35S]GTPγS binding after pretreatment (net) [14]: 121.62 ± 13.78 fmol/mg | Increase of DAMGO EC50 compared with vehicle treated group ([8]; pretreated mMOR-CHO cells): ~4 fold

Cc1cnccc1C(=O)N[C@@H]1CC[C@@]2(O)[C@H]3Cc4ccc(O)c5c4[C@@]2(CCN3CC2CC2)[C@H]1O5 [NMP, N-((4R,4aS,7R,7aR,12bS)-3-(cyclopropylmethyl)-4a,9-dihydroxy-2,3,4,4a,5,6,7,7a-octahydro-1H-4,12-methanobenzofuro[3,2-e]isoquinolin-7-yl)-3-methylisonicotinamide]
Selectivity κ/μ [15]: 166 | EC50 ([16]; read-out: MOR 35S-GTP[γS] Binding EC50): 1.52 ± 0.26 nM | MOR 35S-GTP[γS] Binding % Emax of DAMGO [16]: 30.63 ± 0.55% | Selectivity δ/μ [17]: 470 | Ki [18]: 0.58 ± 0.25 nM

C[C@H]1O[C@@H](O[C@H]2[C@@H](O)C[C@H](O[C@H]3[C@@H](O)C[C@H](O[C@H]4CC[C@@]5(C)[C@H](CC[C@@H]6[C@@H]5C[C@@H](O)[C@]5(C)[C@@H](C7=CC(=O)OC7)CC[C@]65O)C4)O[C@@H]3C)O[C@@H]2C)C[C@H](O)[C@@H]1O [digoxin]
PDR ([19]; after elacridar was added): 1.2 | PDR ([19]; without elacridar): 5.1

C=CCN1CC[C@]23c4c5ccc(O)c4O[C@H]2C(=O)CC[C@@]3(O)[C@H]1C5 [naloxone, reference compound]
AD50 (antagonism of morphine antinociception) [10]: 0.05 mg/kg
